Results reported in PubChem BioAssay AID248 (DTP/NCI, 2004).
“And” between values parts separate entries of the source, which are not always exact repeats. Equal values may be shown once. Toxic doses and inconclusive results are not listed. Cut-off read from the data, not from the text of the source: active = T/C of 150% or more; inactive = T/C below 125%.

System: L1210 leukemia ip in BDF1 mice, survival T/C
Assay: NCI In Vivo Anticancer Drug Screen. Data for tumor model L1210 Leukemia (intraperitoneal) in B6D2F1 (BDF1) mice
Details: endpoint: mean survival time, higher = longer survival
In short: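 Value reflects the ratio of survival in compound-treated mice to survival in vehicle-treated controls, with both groups carrying the same transplanted tumor.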

[1] = dose: 100.0 mg/kg/injection, schedule: Q01DX009 (ip), vehicle: Klucel (hydroxypropylcellulose) (HPC)
[2] = dose: 100.0 mg/kg/injection, schedule: Q04DX003 (ip), vehicle: Klucel (hydroxypropylcellulose) (HPC)
[3] = dose: 200.0 mg/kg/injection, schedule: Q01DX009 (ip), vehicle: Klucel (hydroxypropylcellulose) (HPC)
[4] = dose: 200.0 mg/kg/injection, schedule: Q04DX003 (ip), vehicle: Klucel (hydroxypropylcellulose) (HPC)
[5] = dose: 400.0 mg/kg/injection, schedule: Q04DX003 (ip), vehicle: Klucel (hydroxypropylcellulose) (HPC)
[6] = dose: 200.0 mg/kg/injection, schedule: Q04DX002 (ip), vehicle: Klucel (hydroxypropylcellulose) (HPC)
[7] = dose: 400.0 mg/kg/injection, schedule: Q04DX002 (ip), vehicle: Klucel (hydroxypropylcellulose) (HPC)
[8] = dose: 100.0 mg/kg/injection, schedule: Q04DX002 (ip), vehicle: Klucel (hydroxypropylcellulose) (HPC)
[9] = dose: 50.0 mg/kg/injection, schedule: Q01DX009 (ip), vehicle: Klucel (hydroxypropylcellulose) (HPC)
[10] = dose: 25.0 mg/kg/injection, schedule: Q01DX001 (ip), vehicle: saline with Tween-80
[11] = dose: 50.0 mg/kg/injection, schedule: Q01DX001 (ip), vehicle: saline with Tween-80
[12] = dose: 100.0 mg/kg/injection, schedule: Q01DX001 (ip), vehicle: saline with Tween-80
[13] = dose: 400.0 mg/kg/injection, schedule: Q01DX009 (ip), vehicle: Klucel (hydroxypropylcellulose) (HPC)
[14] = dose: 100.0 mg/kg/injection, schedule: Q01DX001 (ip), vehicle: carboxymethylcellulose (CMC)
[15] = dose: 200.0 mg/kg/injection, schedule: Q01DX001 (ip), vehicle: carboxymethylcellulose (CMC)
[16] = dose: 400.0 mg/kg/injection, schedule: Q01DX001 (ip), vehicle: carboxymethylcellulose (CMC)
[17] = dose: 75.0 mg/kg/injection, schedule: Q01DX001 (ip), vehicle: Klucel (hydroxypropylcellulose) (HPC)
[18] = dose: 150.0 mg/kg/injection, schedule: Q01DX001 (ip), vehicle: Klucel (hydroxypropylcellulose) (HPC)

Measured: T/C

CNC(Cc1ccccc1)c1ccc(OC)cc1 (stereo not given)
inactive: [1] 100 % of control | [2] 96 % of control | [3] 98 % of control | [4] 98 % of control | [5] 101 % of control

C1CC(C2OCOC3COCOC32)OO1 (stereo not given)
inactive: dose: 222.0 mg/kg/injection, schedule: Q01DX Z (ip), vehicle: methylcellulose (MC) 89 % of control | dose: 333.0 mg/kg/injection, schedule: Q01DX Z (ip), vehicle: methylcellulose (MC) 104 % of control | dose: 500.0 mg/kg/injection, schedule: Q01DX Z (ip), vehicle: methylcellulose (MC) 92 % of control

O=C(Nc1cccnc1)c1cccc([N+](=O)[O-])c1
inactive: [6] 108 % of control | [7] 97 % of control

CCCC(O)c1ccc(OC)c(OC)c1 (stereo not given)
inactive: [8] 97 % of control | [6] 102 % of control

CC(=O)Oc1ccc2c3c(ccc2c1)CCCC3
inactive: [9] 90 % of control | [3] 90 % of control

CN(CC(O)CN)c1ccc(Cl)cc1 (stereo not given)
inactive: [10] 104 % of control | [11] 101 % of control | [12] 100 % of control and 103 % of control

Cc1nc(/N=N/c2nc(C)c(C)[nH]2)[nH]c1C
inactive: [1] 95 % of control | [2] 88 % of control | [3] 104 % of control | [4] 93 % of control | [13] 92 % of control | [5] 93 % of control

Nc1ccccc1/C=C/c1ccncc1
inactive: [9] 100 % of control | [1] 92 % of control | [3] 101 % of control | [13] 100 % of control

CCCCOC(=O)c1ccc(NC(=O)NC)cc1
inactive: [1] 100 % of control | [3] 101 % of control | [13] 101 % of control

NC(=S)c1ccc2ccc3cccnc3c2n1
inactive: dose: 50.0 mg/kg/injection, schedule: Q04DX003 (ip), vehicle: saline with Tween-80 95 % of control | dose: 100.0 mg/kg/injection, schedule: Q04DX003 (ip), vehicle: saline with Tween-80 104 % of control | dose: 200.0 mg/kg/injection, schedule: Q04DX003 (ip), vehicle: saline with Tween-80 106 % of control

O=S(=O)(Nc1ccccc1)c1ccc(C2CC3(Cl)C(Cl)=C(Cl)C2(Cl)C3(Cl)Cl)cc1 (stereo not given)
inactive: dose: 29.0 mg/kg/injection, schedule: Q01DX015 (ip), vehicle: carboxymethylcellulose (CMC) 97 % of control | dose: 44.0 mg/kg/injection, schedule: Q01DX015 (ip), vehicle: carboxymethylcellulose (CMC) 104 % of control | dose: 66.0 mg/kg/injection, schedule: Q01DX015 (ip), vehicle: carboxymethylcellulose (CMC) 95 % of control | dose: 88.8 mg/kg/injection, schedule: Q01DX001 (ip), vehicle: carboxymethylcellulose (CMC) 96 % of control and 100 % of control | [14] 110 % of control | dose: 100.0 mg/kg/injection, schedule: Q01DX009 (ip), vehicle: saline sonified 86 % of control | dose: 100.0 mg/kg/injection, schedule: Q01DX015 (ip), vehicle: carboxymethylcellulose (CMC) 92 % of control | [2] 100 % of control | dose: 133.0 mg/kg/injection, schedule: Q01DX001 (ip), vehicle: carboxymethylcellulose (CMC) 107 % of control | [15] 96 % of control and 100 % of control | dose: 200.0 mg/kg/injection, schedule: Q01DX015 (ip), vehicle: carboxymethylcellulose (CMC) 93 % of control | [4] 97 % of control | dose: 300.0 mg/kg/injection, schedule: Q01DX001 (ip), vehicle: carboxymethylcellulose (CMC) 100 % of control and 109 % of control | [16] 105 % of control | dose: 400.0 mg/kg/injection, schedule: Q01DX009 (ip), vehicle: saline sonified 98 % of control | dose: 400.0 mg/kg/injection, schedule: Q01DX015 (ip), vehicle: carboxymethylcellulose (CMC) 89 % of control | [5] 92 % of control

CC1(C)N=C(N)N=C(N)N1c1ccc(OCCOc2ccc(S(=O)(=O)F)cc2)cc1
inactive: dose: 100.0 mg/kg/injection, schedule: Q01DX001 (ip), vehicle: gum acacia 101 % of control | dose: 200.0 mg/kg/injection, schedule: Q01DX001 (ip), vehicle: gum acacia 98 % of control | dose: 400.0 mg/kg/injection, schedule: Q01DX001 (ip), vehicle: gum acacia 103 % of control

COc1cc(CC2C(O)C3CCN2CC3)cc(OC)c1OC (stereo not given)
inactive: dose: 25.0 mg/kg/injection, schedule: Q04DX002 (ip), vehicle: saline 101 % of control | dose: 50.0 mg/kg/injection, schedule: Q04DX002 (ip), vehicle: saline 101 % of control | dose: 100.0 mg/kg/injection, schedule: Q04DX002 (ip), vehicle: saline 97 % of control and 104 % of control

O=C1c2sccc2-c2cccc3cccc1c23
inactive: dose: 50.0 mg/kg/injection, schedule: Q04DX003 (ip), vehicle: Klucel (hydroxypropylcellulose) (HPC) 98 % of control | [1] 98 % of control | [2] 96 % of control | [3] 106 % of control | [4] 102 % of control | [13] 103 % of control

NNC(=O)C1CC2C=CC1C2 (stereo not given)
inactive: dose: 100.0 mg/kg/injection, schedule: Q01DX009 (ip), vehicle: saline 100 % of control | dose: 200.0 mg/kg/injection, schedule: Q01DX009 (ip), vehicle: saline 103 % of control

O=C1c2nc3ccccc3nc2C(=O)N1OS(=O)(=O)c1ccccc1
inactive: [1] 92 % of control | [3] 105 % of control | [13] 100 % of control

CCOC(=O)C(Br)C(=O)OCC
inactive: dose: 18.75 mg/kg/injection, schedule: Q01DX009 (ip), vehicle: saline with Tween-80 97 % of control

S=C([S][Sn]([S]C(=S)N(c1ccccc1)c1ccccc1)([c]1ccccc1)[c]1ccccc1)N(c1ccccc1)c1ccccc1
inactive: dose: 100.0 mg/kg/injection, schedule: Q01DX001 (ip), vehicle: steriod suspending solution 93 % of control | dose: 200.0 mg/kg/injection, schedule: Q01DX001 (ip), vehicle: steriod suspending solution 112 % of control

O=C(NCCCl)Nc1cccc(Cl)c1
inactive: [10] 97 % of control | [11] 94 % of control | [12] 86 % of control

CCN(CC)CCNC(Cc1ccccc1)c1ccc(OCc2ccccc2)cc1 (stereo not given)
inactive: [14] 100 % of control | [15] 96 % of control | [16] 96 % of control

CCCCCC1CCC(O)CC1 (stereo not given)
inactive: [1] 95 % of control | [2] 106 % of control | [3] 90 % of control | [4] 111 % of control | [13] 105 % of control | [5] 103 % of control

CNCCCC1c2ccccc2C=Cc2ccccc21
inactive: dose: 3.12 mg/kg/injection, schedule: Q01DX009 (ip), vehicle: saline 100 % of control | dose: 6.25 mg/kg/injection, schedule: Q01DX009 (ip), vehicle: saline 96 % of control | dose: 12.5 mg/kg/injection, schedule: Q01DX009 (ip), vehicle: saline 101 % of control | dose: 25.0 mg/kg/injection, schedule: Q01DX009 (ip), vehicle: saline 100 % of control | dose: 25.0 mg/kg/injection, schedule: Q04DX003 (ip), vehicle: saline 90 % of control | dose: 50.0 mg/kg/injection, schedule: Q04DX003 (ip), vehicle: saline 101 % of control

Cc1ccc(OC/C=C/CSc2ccc(Br)cc2)cc1
inactive: [9] 103 % of control | [17] 106 % of control | [1] 100 % of control | [18] 104 % of control | [3] 102 % of control | dose: 300.0 mg/kg/injection, schedule: Q01DX001 (ip), vehicle: Klucel (hydroxypropylcellulose) (HPC) 98 % of control

COc1ccc(-n2c(=O)c(N=Nc3ccccc3C)c(O)n(-c3ccc(Br)cc3)c2=S)cc1
inactive: dose: 37.5 mg/kg/injection, schedule: Q01DX001 (ip), vehicle: Klucel (hydroxypropylcellulose) (HPC) 94 % of control | [17] 92 % of control | [18] 105 % of control

O=C(On1c(-c2ccccc2)cc2ccccc21)c1ccc([N+](=O)[O-])cc1
inactive: [8] 104 % of control | [6] 111 % of control | [7] 96 % of control
